Assay results taken from PubChem BioAssay AID248 (DTP/NCI, 2004).
Values joined by “and” are separate entries in the source; they are usually repeats but may differ in a detail not shown here. Equal values may be shown once. Inconclusive results and toxic doses are left out. Rule as the data show it: active = T/C of 150% or more; inactive = T/C below 125%.

System: L1210 leukemia ip in BDF1 mice, survival T/C
Assay: NCI In Vivo Anticancer Drug Screen. Data for tumor model L1210 Leukemia (intraperitoneal) in B6D2F1 (BDF1) mice
Details: endpoint: mean survival time, higher = longer survival
In short: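 Ratio derived from survival: compound-dosed mice over vehicle-dosed mice, all bearing a transplantable tumor.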

[1] = dose: 100.0 mg/kg/injection, schedule: Q04DX002 (ip), vehicle: Klucel (hydroxypropylcellulose) (HPC)
[2] = dose: 200.0 mg/kg/injection, schedule: Q04DX002 (ip), vehicle: Klucel (hydroxypropylcellulose) (HPC)
[3] = dose: 400.0 mg/kg/injection, schedule: Q04DX002 (ip), vehicle: Klucel (hydroxypropylcellulose) (HPC)
[4] = dose: 100.0 mg/kg/injection, schedule: Q04DX003 (ip), vehicle: Klucel (hydroxypropylcellulose) (HPC)
[5] = dose: 200.0 mg/kg/injection, schedule: Q01DX009 (ip), vehicle: Klucel (hydroxypropylcellulose) (HPC)
[6] = dose: 200.0 mg/kg/injection, schedule: Q04DX003 (ip), vehicle: Klucel (hydroxypropylcellulose) (HPC)
[7] = dose: 400.0 mg/kg/injection, schedule: Q04DX003 (ip), vehicle: Klucel (hydroxypropylcellulose) (HPC)
[8] = dose: 100.0 mg/kg/injection, schedule: Q04DX003 (ip), vehicle: saline with Tween-80
[9] = dose: 200.0 mg/kg/injection, schedule: Q04DX003 (ip), vehicle: saline with Tween-80
[10] = dose: 400.0 mg/kg/injection, schedule: Q04DX003 (ip), vehicle: saline with Tween-80

Measured: T/C

CC(O)CNC1CCCCC1 (configuration not stated)
inactive: dose: 75.0 mg/kg/injection, schedule: Q01DX001 (ip), vehicle: saline 92 % of control | dose: 150.0 mg/kg/injection, schedule: Q01DX001 (ip), vehicle: saline 100 % of control

Cc1ccc([N+](=O)[O-])cc1NC(=O)Oc1cc(=O)oc2ccccc12
inactive: [1] 104 % of control | [2] 90 % of control | [3] 93 % of control

Cc1ccc(NC(=O)Nc2ccc(Cl)c(Cl)c2)cc1Cl
inactive: dose: 100.0 mg/kg/injection, schedule: Q01DX009 (ip), vehicle: Klucel (hydroxypropylcellulose) (HPC) 97 % of control | [4] 93 % of control | [5] 87 % of control | [6] 96 % of control | dose: 400.0 mg/kg/injection, schedule: Q01DX009 (ip), vehicle: Klucel (hydroxypropylcellulose) (HPC) 92 % of control | [7] 91 % of control

O=C(Nc1ccccc1C(F)(F)F)OCc1ccco1
inactive: dose: 100.0 mg/kg/injection, schedule: Q01DX001 (ip), vehicle: gum acacia 102 % of control and 91 % of control | dose: 100.0 mg/kg/injection, schedule: Q01DX009 (ip), vehicle: gum acacia 100 % of control | dose: 100.0 mg/kg/injection, schedule: Q04DX002 (ip), vehicle: gum acacia 95 % of control and 101 % of control | dose: 100.0 mg/kg/injection, schedule: Q04DX003 (ip), vehicle: gum acacia 94 % of control and 99 % of control | dose: 200.0 mg/kg/injection, schedule: Q01DX001 (ip), vehicle: gum acacia 98 % of control and 105 % of control | dose: 200.0 mg/kg/injection, schedule: Q01DX009 (ip), vehicle: gum acacia 97 % of control | dose: 200.0 mg/kg/injection, schedule: Q04DX002 (ip), vehicle: gum acacia 99 % of control and 108 % of control | dose: 200.0 mg/kg/injection, schedule: Q04DX003 (ip), vehicle: gum acacia 96 % of control and 92 % of control | dose: 400.0 mg/kg/injection, schedule: Q01DX001 (ip), vehicle: gum acacia 94 % of control and 95 % of control | dose: 400.0 mg/kg/injection, schedule: Q01DX009 (ip), vehicle: gum acacia 105 % of control | dose: 400.0 mg/kg/injection, schedule: Q04DX002 (ip), vehicle: gum acacia 99 % of control and 101 % of control | dose: 400.0 mg/kg/injection, schedule: Q04DX003 (ip), vehicle: gum acacia 108 % of control and 92 % of control

COc1ccc(CCCCO)cc1
inactive: dose: 100.0 mg/kg/injection, schedule: Q01DX001 (ip), vehicle: acetone 96 % of control | dose: 200.0 mg/kg/injection, schedule: Q01DX001 (ip), vehicle: acetone 102 % of control | dose: 400.0 mg/kg/injection, schedule: Q01DX001 (ip), vehicle: acetone 86 % of control

O=c1ccs[nH]1
inactive: dose: 12.5 mg/kg/injection, schedule: Q04DX003 (ip), vehicle: saline with Tween-80 106 % of control | dose: 25.0 mg/kg/injection, schedule: Q04DX003 (ip), vehicle: saline with Tween-80 98 % of control

CNC(=O)O/N=C(C)/C(C)=N/OC(=O)NC
inactive: dose: 100.0 mg/kg/injection, schedule: Q01DX001 (ip), vehicle: other 93 % of control | dose: 200.0 mg/kg/injection, schedule: Q01DX001 (ip), vehicle: other 87 % of control | dose: 400.0 mg/kg/injection, schedule: Q01DX001 (ip), vehicle: other 87 % of control

COC(=O)CSC(=S)N(C)C
inactive: [8] 91 % of control | [9] 91 % of control | [10] 94 % of control

Cn1nnnc1/C(=C/c1ccccc1)C(=O)O
inactive: [8] 95 % of control | [9] 95 % of control | [10] 90 % of control

CC(C)(C)CC(N)=O
inactive: dose: 100.0 mg/kg/injection, schedule: Q01DX001 (ip), vehicle: saline 106 % of control | dose: 100.0 mg/kg/injection, schedule: Q01DX009 (ip), vehicle: saline 101 % of control | [4] 117 % of control | dose: 100.0 mg/kg/injection, schedule: Q04DX003 (ip), vehicle: saline 103 % of control | dose: 133.0 mg/kg/injection, schedule: Q01DX009 (ip), vehicle: Klucel (hydroxypropylcellulose) (HPC) 111 % of control | dose: 133.0 mg/kg/injection, schedule: Q04DX003 (ip), vehicle: Klucel (hydroxypropylcellulose) (HPC) 123 % of control | dose: 200.0 mg/kg/injection, schedule: Q01DX001 (ip), vehicle: saline 97 % of control | [5] 111 % of control | dose: 200.0 mg/kg/injection, schedule: Q01DX009 (ip), vehicle: saline 89 % of control | [6] 124 % of control | dose: 200.0 mg/kg/injection, schedule: Q04DX003 (ip), vehicle: saline 97 % of control | dose: 300.0 mg/kg/injection, schedule: Q01DX009 (ip), vehicle: Klucel (hydroxypropylcellulose) (HPC) 105 % of control | dose: 300.0 mg/kg/injection, schedule: Q04DX003 (ip), vehicle: Klucel (hydroxypropylcellulose) (HPC) 98 % of control | dose: 400.0 mg/kg/injection, schedule: Q01DX001 (ip), vehicle: saline 103 % of control | dose: 400.0 mg/kg/injection, schedule: Q01DX009 (ip), vehicle: saline 97 % of control | [7] 109 % of control | dose: 400.0 mg/kg/injection, schedule: Q04DX003 (ip), vehicle: saline 103 % of control

CSC(=S)NNC(=O)c1ccc(C(F)(F)F)cc1
inactive: dose: 10.0 mg/kg/injection, schedule: Q04DX003 (ip), vehicle: saline 106 % of control | dose: 20.0 mg/kg/injection, schedule: Q04DX003 (ip), vehicle: saline 106 % of control | dose: 40.0 mg/kg/injection, schedule: Q04DX003 (ip), vehicle: saline 105 % of control

Cc1cccc(OC(=O)Nc2cccc(Cl)c2)c1
inactive: dose: 100.0 mg/kg/injection, schedule: Q01DX009 (ip), vehicle: carboxymethylcellulose (CMC) 98 % of control and 110 % of control | [1] 95 % of control | dose: 100.0 mg/kg/injection, schedule: Q04DX002 (ip), vehicle: carboxymethylcellulose (CMC) 93 % of control and 120 % of control and 92 % of control | dose: 100.0 mg/kg/injection, schedule: Q04DX003 (ip), vehicle: carboxymethylcellulose (CMC) 103 % of control | dose: 200.0 mg/kg/injection, schedule: Q01DX009 (ip), vehicle: carboxymethylcellulose (CMC) 96 % of control and 104 % of control | [2] 92 % of control | dose: 200.0 mg/kg/injection, schedule: Q04DX002 (ip), vehicle: carboxymethylcellulose (CMC) 97 % of control and 103 % of control and 106 % of control | dose: 200.0 mg/kg/injection, schedule: Q04DX003 (ip), vehicle: carboxymethylcellulose (CMC) 110 % of control | [3] 95 % of control | dose: 400.0 mg/kg/injection, schedule: Q04DX002 (ip), vehicle: carboxymethylcellulose (CMC) 98 % of control and 100 % of control and 124 % of control | dose: 400.0 mg/kg/injection, schedule: Q04DX003 (ip), vehicle: carboxymethylcellulose (CMC) 94 % of control

CC(=O)OC1C=CN(C(C)=O)C(SC23CC4CC(CC(C4)C2)C3)C1OC(C)=O (configuration not stated)
inactive: [4] 92 % of control | [6] 100 % of control | [7] 92 % of control

O=C(OCc1ccccc1CN1CCOCC1)c1ccc(Br)cc1
inactive: [1] 100 % of control | [2] 92 % of control | [3] 103 % of control

O=C1C=C(C(c2ccccc2)c2ccccc2)C(=O)C=C1NS(=O)(=O)c1ccccc1
inactive: dose: 25.0 mg/kg/injection, schedule: Q01DX001 (ip), vehicle: Klucel (hydroxypropylcellulose) (HPC) 106 % of control | dose: 50.0 mg/kg/injection, schedule: Q01DX001 (ip), vehicle: Klucel (hydroxypropylcellulose) (HPC) 97 % of control | dose: 100.0 mg/kg/injection, schedule: Q01DX001 (ip), vehicle: Klucel (hydroxypropylcellulose) (HPC) 95 % of control

N#CC(C#N)c1c(F)c(F)c(C(F)(F)F)c(F)c1F
inactive: dose: 10.0 mg/kg/injection, schedule: Q04DX003 (ip), vehicle: Klucel (hydroxypropylcellulose) (HPC) 103 % of control | dose: 20.0 mg/kg/injection, schedule: Q01DX001 (ip), vehicle: Klucel (hydroxypropylcellulose) (HPC) 97 % of control | dose: 20.0 mg/kg/injection, schedule: Q04DX003 (ip), vehicle: Klucel (hydroxypropylcellulose) (HPC) 98 % of control | dose: 40.0 mg/kg/injection, schedule: Q01DX001 (ip), vehicle: Klucel (hydroxypropylcellulose) (HPC) 101 % of control | dose: 40.0 mg/kg/injection, schedule: Q04DX003 (ip), vehicle: Klucel (hydroxypropylcellulose) (HPC) 95 % of control
